Values of other authors in patent publication US20160194352A1, “AMORPHOUS FORMS OF DACLATASVIR DIHYDROCHLORIDE” (Dr.Reddy's Laboratories Ltd., priority 2015, published 2016).

Tested on: HCV
Details: HCV infected patients, combination therapy

## alpha-interferon and ribavirin
  sustained efficacy, share of patients: 40% of patients
